Laboratory results: publication PMC5222342, “Leukotriene B₄ Metabolism and p70S6 Kinase 1 Inhibitors: PF-4708671 but Not LY2584702 Inhibits CYP4F3A and the ω-Oxidation of Leukotriene B₄ In Vitro and In Cellulo” (PLoS ONE, 2017)

Tests used:
CYP4F3A [1] = target: T1, CYP4F3A (Homo sapiens, UniProt Q08477); set-up: gene CYP4F3
T1 sequence (Q08477 1-520): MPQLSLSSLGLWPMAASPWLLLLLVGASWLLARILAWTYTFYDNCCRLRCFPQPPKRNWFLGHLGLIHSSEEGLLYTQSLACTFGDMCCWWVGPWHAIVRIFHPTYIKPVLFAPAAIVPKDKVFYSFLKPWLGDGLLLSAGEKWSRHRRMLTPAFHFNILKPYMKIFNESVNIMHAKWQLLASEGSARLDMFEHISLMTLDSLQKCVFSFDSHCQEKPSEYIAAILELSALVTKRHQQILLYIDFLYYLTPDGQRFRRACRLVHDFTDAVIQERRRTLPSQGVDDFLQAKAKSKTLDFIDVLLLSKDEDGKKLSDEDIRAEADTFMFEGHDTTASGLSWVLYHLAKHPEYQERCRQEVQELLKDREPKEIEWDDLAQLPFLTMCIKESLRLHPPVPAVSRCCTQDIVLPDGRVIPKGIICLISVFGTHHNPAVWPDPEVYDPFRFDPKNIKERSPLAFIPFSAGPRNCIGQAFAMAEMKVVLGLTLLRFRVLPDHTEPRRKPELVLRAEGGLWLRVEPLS

CYP4F3A [2] = target: T1, CYP4F3A; assay: recombinant CYP4F3A LTB4 omega-oxidation assay, HPLC; Michaelis-Menten and Lineweaver-Burk kinetics; assay type: biochemical; set-up: gene CYP4F3; human recombinant CYP4F3A

Structure (SMILES) | omega-oxidation of LTB4 (1-20 uM) by recombinant CYP4F3A, HPLC, Michaelis-Menten (CYP4F3A [1]) | IC50 (CYP4F3A [2]) [nM]
CCCCC/C=C\C[C@@H](O)/C=C/C=C/C=C\[C@@H](O)CCCC(=O)O [LTB4] | Human recombinant CYP4F3A was incubated with increasing concentrations of PF-4708671 before the addition of LTB4 at different concentrations | 
CCc1cncnc1N1CCN(Cc2nc3cc(C(F)(F)F)ccc3[nH]2)CC1 [PF-4708671] |  | ~750
